Results taken from US9840520B2, “Heterocyclic hydroxamic acids as protein deacetylase inhibitors and dual protein deacetylase-protein kinase inhibitors and methods of use thereof” (The Regents of the University of Colorado, A Body Corporate, priority 2014, dated 2017).

Tests used:
[1] = tested on: NCI/ADR-RES; assay: NCI60 tumour cell line screen, NCI/ADR-RES; type: cell-based; details: Homo sapiens, Ovarian Cancer
[2] = tested on: MDA-MB-468; assay: NCI60 tumour cell line screen, MDA-MB-468; type: cell-based; details: Homo sapiens; MDA-MB-468, Breast Cancer
[3] = tested on: CAKI-1; assay: NCI60 tumour cell line screen, CAKI-1; type: cell-based; details: Homo sapiens; CAKI-1, Renal Cancer
[4] = tested on: HT29; assay: NCI60 tumour cell line screen, HT29; type: cell-based; details: Homo sapiens, HT-29; HT29, Colon Cancer
[5] = tested on: SR; assay: NCI60 tumour cell line screen, SR; type: cell-based; details: Homo sapiens, Leukemia
[6] = tested on: SN12C; assay: NCI60 tumour cell line screen, SN12C; type: cell-based; details: Homo sapiens, Renal Cancer
[7] = tested on: MCF7; assay: NCI60 tumour cell line screen, MCF7; type: cell-based; details: Homo sapiens; MCF7, Breast Cancer
[8] = tested on: BT-549; assay: NCI60 tumour cell line screen, BT-549; type: cell-based; details: Homo sapiens; BT-549, Breast Cancer
[9] = tested on: A549/ATCC; assay: NCI60 tumour cell line screen, A549/ATCC; type: cell-based; details: Homo sapiens, Non-Small Cell Lung Cancer
[10] = tested on: M14; assay: NCI60 tumour cell line screen, M14; type: cell-based; details: Homo sapiens; M14, Melanoma
[11] = tested on: HOP-62; assay: NCI60 tumour cell line screen, HOP-62; type: cell-based; details: Homo sapiens; HOP-62, Non-Small Cell Lung Cancer
[12] = tested on: SF-539; assay: NCI60 tumour cell line screen, SF-539; type: cell-based; details: Homo sapiens; SF-539, CNS Cancer
[13] = tested on: HL-60(TB); assay: NCI60 tumour cell line screen, HL-60(TB); type: cell-based; details: Homo sapiens, Leukemia
[14] = tested on: NCI-H460; assay: NCI60 tumour cell line screen, NCI-H460; type: cell-based; details: Homo sapiens; NCI-H460, Non-Small Cell Lung Cancer
[15] = tested on: ACHN; assay: NCI60 tumour cell line screen, ACHN; type: cell-based; details: Homo sapiens, Renal Cancer
[16] = tested on: RPMI-8226; assay: NCI60 tumour cell line screen, RPMI-8226; type: cell-based; details: Homo sapiens; RPMI-8226, Leukemia
[17] = tested on: UACC-62; assay: NCI60 tumour cell line screen, UACC-62; type: cell-based; details: Homo sapiens; UACC-62, Melanoma
[18] = tested on: OVCAR-4; assay: NCI60 tumour cell line screen, OVCAR-4; type: cell-based; details: Homo sapiens; OVCAR-4, Ovarian Cancer
[19] = tested on: NCI-H23; assay: NCI60 tumour cell line screen, NCI-H23; type: cell-based; details: Homo sapiens; NCI-H23, Non-Small Cell Lung Cancer
[20] = tested on: MALME-3M; assay: NCI60 tumour cell line screen, MALME-3M; type: cell-based; details: Homo sapiens, Melanoma
[21] = tested on: SK-MEL-5; assay: NCI60 tumour cell line screen, SK-MEL-5; type: cell-based; details: Homo sapiens; SK-MEL-5, Melanoma
[22] = tested on: SF-268; assay: NCI60 tumour cell line screen, SF-268; type: cell-based; details: Homo sapiens; SF-268, CNS Cancer
[23] = tested on: SK-OV-3; assay: NCI60 tumour cell line screen, SK-OV-3; type: cell-based; details: Homo sapiens; SK-OV-3, Ovarian Cancer
[24] = tested on: U251; assay: NCI60 tumour cell line screen, U251; type: cell-based; details: Homo sapiens, U-251; U251, CNS Cancer
[25] = tested on: HCT-15; assay: NCI60 tumour cell line screen, HCT-15; type: cell-based; details: Homo sapiens; HCT-15, Colon Cancer
[26] = tested on: MDA-MB-435; assay: NCI60 tumour cell line screen, MDA-MB-435; type: cell-based; details: Homo sapiens; MDA-MB-435, Melanoma
[27] = tested on: NCI-H322M; assay: NCI60 tumour cell line screen, NCI-H322M; type: cell-based; details: Homo sapiens, Non-Small Cell Lung Cancer
[28] = tested on: OVCAR-3; assay: NCI60 tumour cell line screen, OVCAR-3; type: cell-based; details: Homo sapiens; OVCAR-3, Ovarian Cancer
[29] = tested on: 786-0; assay: NCI60 tumour cell line screen, 786-0; type: cell-based; details: Homo sapiens; 786-0, Renal Cancer
[30] = tested on: SK-MEL-2; assay: NCI60 tumour cell line screen, SK-MEL-2; type: cell-based; details: Homo sapiens; SK-MEL-2, Melanoma
[31] = tested on: T-47D; assay: NCI60 tumour cell line screen, T-47D; type: cell-based; details: Homo sapiens, T47D, Breast Cancer
[32] = tested on: HS578T; assay: NCI60 tumour cell line screen, HS578T; type: cell-based; details: Homo sapiens, Hs-578T, Breast Cancer
[33] = tested on: LOXIMVI; assay: NCI60 tumour cell line screen, LOXIMVI; type: cell-based; details: Homo sapiens, LOX IMVI, Melanoma
[34] = tested on: NCI-H226; assay: NCI60 tumour cell line screen, NCI-H226; type: cell-based; details: Homo sapiens; NCI-H226, Non-Small Cell Lung Cancer
[35] = tested on: A498; assay: NCI60 tumour cell line screen, A498; type: cell-based; details: Homo sapiens; A498, Renal Cancer
[36] = tested on: SW-620; assay: NCI60 tumour cell line screen, SW-620; type: cell-based; details: Homo sapiens; SW-620, Colon Cancer
[37] = tested on: OVCAR-8; assay: NCI60 tumour cell line screen, OVCAR-8; type: cell-based; details: Homo sapiens; OVCAR-8, Ovarian Cancer
[38] = tested on: SF-295; assay: NCI60 tumour cell line screen, SF-295; type: cell-based; details: Homo sapiens; SF-295, CNS Cancer
[39] = tested on: HCC-2998; assay: NCI60 tumour cell line screen, HCC-2998; type: cell-based; details: Homo sapiens; HCC-2998, Colon Cancer
[40] = tested on: MDA-MB-231/ATCC; assay: NCI60 tumour cell line screen, MDA-MB-231/ATCC; type: cell-based; details: Homo sapiens, Breast Cancer
[41] = tested on: MOLT-4; assay: NCI60 tumour cell line screen, MOLT-4; type: cell-based; details: Homo sapiens; MOLT-4, Leukemia
[42] = tested on: SNB-19; assay: NCI60 tumour cell line screen, SNB-19; type: cell-based; details: Homo sapiens; SNB-19, CNS Cancer
[43] = tested on: SNB-75; assay: NCI60 tumour cell line screen, SNB-75; type: cell-based; details: Homo sapiens; SNB-75, CNS Cancer
[44] = tested on: TK-10; assay: NCI60 tumour cell line screen, TK-10; type: cell-based; details: Homo sapiens; TK-10, Renal Cancer
[45] = tested on: PC-3; assay: NCI60 tumour cell line screen, PC-3; type: cell-based; details: Homo sapiens; PC-3, Prostate Cancer
[46] = tested on: IGROV1; assay: NCI60 tumour cell line screen, IGROV1; type: cell-based; details: Homo sapiens, IGROV-1; IGROV1, Ovarian Cancer
[47] = tested on: RXF393; assay: NCI60 tumour cell line screen, RXF393; type: cell-based; details: Homo sapiens, RXF 393; RXF393, Renal Cancer
[48] = tested on: CCRF-CEM; assay: NCI60 tumour cell line screen, CCRF-CEM; type: cell-based; details: Homo sapiens, Leukemia
[49] = tested on: COLO205; assay: NCI60 tumour cell line screen, COLO205; type: cell-based; details: Homo sapiens, COLO 205; COLO205, Colon Cancer
[50] = tested on: HCT-116; assay: NCI60 tumour cell line screen, HCT-116; type: cell-based; details: Homo sapiens; HCT-116, Colon Cancer
[51] = tested on: SK-MEL-28; assay: NCI60 tumour cell line screen, SK-MEL-28; type: cell-based; details: Homo sapiens; SK-MEL-28, Melanoma
[52] = tested on: OVCAR-5; assay: NCI60 tumour cell line screen, OVCAR-5; type: cell-based; details: Homo sapiens; OVCAR-5, Ovarian Cancer
[53] = tested on: UO-31; assay: NCI60 tumour cell line screen, UO-31; type: cell-based; details: Homo sapiens; UO-31, Renal Cancer
[54] = tested on: KM12; assay: NCI60 tumour cell line screen, KM12; type: cell-based; details: Homo sapiens; KM12, Colon Cancer
[55] = tested on: K-562; assay: NCI60 tumour cell line screen, K-562; type: cell-based; details: Homo sapiens, K562; K-562, Leukemia
[56] = tested on: DU-145; assay: NCI60 tumour cell line screen, DU-145; type: cell-based; details: Homo sapiens; DU-145, Prostate Cancer
[57] = tested on: UACC-257; assay: NCI60 tumour cell line screen, UACC-257; type: cell-based; details: Homo sapiens; UACC-257, Melanoma
[58] = tested on: NCI-H522; assay: NCI60 tumour cell line screen, NCI-H522; type: cell-based; details: Homo sapiens; NCI-H522, Non-Small Cell Lung Cancer
[59] = target: TTK/Mps1 (Homo sapiens, UniProt P33981); details: TTK/Mps1 inhibitors of the literature; cited from earlier work
Chain of TTK/Mps1 (P33981 whole entry): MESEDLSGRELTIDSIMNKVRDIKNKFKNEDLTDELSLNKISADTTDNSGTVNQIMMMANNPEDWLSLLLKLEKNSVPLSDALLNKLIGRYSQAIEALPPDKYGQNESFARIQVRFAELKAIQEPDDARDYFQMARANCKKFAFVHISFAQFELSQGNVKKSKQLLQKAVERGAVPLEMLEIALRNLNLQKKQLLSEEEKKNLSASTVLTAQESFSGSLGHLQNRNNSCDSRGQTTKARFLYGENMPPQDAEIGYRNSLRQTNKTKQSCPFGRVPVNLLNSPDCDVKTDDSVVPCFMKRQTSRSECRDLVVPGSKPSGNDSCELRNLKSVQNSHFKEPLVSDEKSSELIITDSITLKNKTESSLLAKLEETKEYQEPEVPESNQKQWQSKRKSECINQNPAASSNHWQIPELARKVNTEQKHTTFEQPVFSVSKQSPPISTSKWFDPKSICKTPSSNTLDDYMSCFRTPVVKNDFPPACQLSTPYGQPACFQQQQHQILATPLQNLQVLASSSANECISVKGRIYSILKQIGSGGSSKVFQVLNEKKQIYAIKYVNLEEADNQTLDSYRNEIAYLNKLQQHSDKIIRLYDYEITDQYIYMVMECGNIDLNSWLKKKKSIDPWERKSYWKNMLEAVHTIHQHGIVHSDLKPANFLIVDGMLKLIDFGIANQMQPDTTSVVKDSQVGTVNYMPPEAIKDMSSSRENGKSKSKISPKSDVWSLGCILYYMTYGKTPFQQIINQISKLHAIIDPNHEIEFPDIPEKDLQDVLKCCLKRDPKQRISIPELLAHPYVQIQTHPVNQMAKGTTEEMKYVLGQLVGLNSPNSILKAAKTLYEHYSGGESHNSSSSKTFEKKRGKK

`O=C(CCCCCOc1ccc(Nc2nc(NC3CCCCC3)c3nc[nH]c3n2)cc1)NO` [Example 3, 6-(4-(6-(cyclohexylamino)-9H-purin-2-ylamino)phenoxy)-N-hydroxyhexanamide] showed a GI50 [1] of 13.5 µM, a GI50 [2] of 2.4 µM and a GI50 [3] of 4.68 µM. The GI50 [4] was 2.54 µM, the GI50 [5] was 0.669 µM and the GI50 [6] was 3.23 µM. It also gave a GI50 [7] of 1.46 µM, a GI50 [8] of 5.51 µM and a GI50 [9] of 2.3 µM. It also gave a GI50 [10] of 1.96 µM, a GI50 [11] of 2.96 µM and a GI50 [12] of 1.57 µM. The GI50 [13] was 2.95 µM, the GI50 [14] was 2.04 µM and the GI50 [15] was 3.57 µM. The GI50 [16] was 2.81 µM, the GI50 [17] was 2.22 µM and the GI50 [18] was 3.82 µM. For the same compound, the GI50 [19] was 4.73 µM, the GI50 [20] was 2.49 µM and the GI50 [21] was 2.82 µM. For the same compound, the GI50 [22] was 3.83 µM, the GI50 [23] was 2.52 µM and the GI50 [24] was 1.96 µM. It also gave a GI50 [25] of 4.3 µM, a GI50 [26] of 2.46 µM and a GI50 [27] of 3 µM. It also gave a GI50 [28] of 2.17 µM, a GI50 [29] of 4.61 µM and a GI50 [30] of 2.93 µM. It also gave a GI50 [31] of 2.33 µM, a GI50 [32] of 1.61 µM and a GI50 [33] of 1.18 µM. For the same compound, the GI50 [34] was 2.88 µM, the GI50 [35] was 0.195 µM and the GI50 [36] was 0.895 µM. The GI50 [37] was 2.8 µM, the GI50 [38] was 2.35 µM and the GI50 [39] was 3.58 µM. It also gave a GI50 [40] of 1.93 µM, a GI50 [41] of 1.78 µM and a GI50 [42] of 5.96 µM. For the same compound, the GI50 [43] was 1.69 µM, the GI50 [44] was 2.68 µM and the GI50 [45] was 2.98 µM. For the same compound, the GI50 [46] was 2.24 µM, the GI50 [47] was 1.9 µM and the GI50 [48] was 0.667 µM. The GI50 [49] was 1.26 µM, the GI50 [50] was 1.45 µM and the GI50 [51] was 3.64 µM. For the same compound, the GI50 [52] was 2.26 µM, the GI50 [53] was 3.52 µM and the GI50 [54] was 1.74 µM. It also gave a GI50 [55] of 2.03 µM, a GI50 [56] of 2.51 µM and a GI50 [57] of 2.94 µM. It also gave a GI50 [58] of 2.72 µM.
For `Oc1c2ccccc2c2c3c(cccc13)N=N2` [SP600125], the IC50 [59] is listed as 0.25 µM.
